Test results published in US10597388B2, “Pyridazinone herbicides” (FMC CORPORATION, priority 2014, dated 2020).

Key:
Assay in all cases: Test E greenhouse herbicide test, pre- and postemergence
Type in all cases: in vivo
[1] = tested on: Italian ryegrass (Lolium multiflorum)
Source text: (§1) Seeds of plant species selected from corn (Zea mays), soybean (Glycine max), velvetleaf (Abutilon theophrasti), lambsquarters (Chenopodium album), wild poinsettia (Euphorbia heterophylla), pigweed, palmer (palmer pigweed, Amaranthus palmeri), waterhemp (common waterhemp, Amaranthus rudis), surinam grass (Brachiaria decumbens), crabgrass, large (large crabgrass, Digitaria sanguinalis), crabgrass, Brazilian (Brazilian crabgrass, Digitaria horizontalis), panicum, fall (fall panicum, Panicum dichotomiflorum), foxtail, giant (giant foxtail, Setaria faberii), foxtail, green (green foxtail, Setaria viridis), goosegrass (Eleusine indica), johnsongrass (Sorghum halepense), ragweed (common ragweed, Ambrosia elatior), barnyardgrass (Echinochloa crus-galli), sandbur (southem sandbur, Cenchrus echinatus), arrowleaf sida (Sida rhombifolia), Italian ryegrass (Lolium multiflorum), dayflower (Virginia (VA) dayflower, Commelina virginica), field bindweed (Convolvulus arvensis), momingglory (Ipomoea coccinea), nightshade (eastern black nightshade, Solanum ptycanthum), kochia (Kochia scoparia), nutsedge, yellow (yellow nutsedge, Cyperus esculentus), horseweed (Conyza canadensis), and beggarticks (hairy beggarticks, Bidens pilosa), were planted into a silt loam soil and treated preemergence with test chemicals formulated in a non-phytotoxic solvent mixture which included a surfactant.
(§2) At the same time, plants from these crop and weed species and also waterhemp_RES1, (ALS & Triazine resistant common waterhemp, Amaranthus rudis), and waterhemp_RES2, (ALS & HPPD resistant common waterhemp, Amaranthus rudis) were planted in pots containing Redi-Earth® planting medium (Scotts Company, 14111 Scottslawn Road, Marysville, Ohio 43041) comprising spaghnum peat moss, vermiculite, wetting agent and starter nutrients were treated with postemergence applications of test chemicals formulated in the same manner. Plants ranged in height from 2 to 18 cm for postemergence treatments (1- to 4-leaf stage). Treated plants and controls were maintained in a greenhouse for 14 to 21 d, after which time all species were compared to controls and visually evaluated. Plant response ratings, summarized in Table E, are based on a scale of 0 to 100 where 0 is no effect and 100 is complete control. A dash (-) response means no test result.

[2] = tested on: arrowleaf sida (Sida rhombifolia)
Source text: as §1, §2

[3] = tested on: barnyardgrass (Echinochloa crus-galli)
Source text: as §1, §2

corn (Zea mays) = tested on: corn (Zea mays)
Source text: as §1, §2

[4] = tested on: crabgrass, Brazilian (Brazilian crabgrass, Digitaria horizontalis)
Source text: as §1, §2

[5] = tested on: dayflower (Virginia (VA) dayflower, Commelina virginica)
Source text: as §1, §2

[6] = tested on: foxtail, green (green foxtail, Setaria viridis); conditions: Preemergence
Source text: as §1, §2

[7] = tested on: goosegrass (Eleusine indica); conditions: Preemergence
Source text: as §1, §2

[8] = tested on: horseweed (Conyza canadensis); conditions: Postemergence
Source text: as §1, §2

[9] = tested on: momingglory (Ipomoea coccinea); conditions: Preemergence
Source text: as §1, §2

[10] = tested on: nutsedge, yellow (yellow nutsedge, Cyperus esculentus); conditions: Preemergence
Source text: as §1, §2

[11] = tested on: panicum, fall (fall panicum, Panicum dichotomiflorum)
Source text: as §1, §2

[12] = tested on: ragweed (common ragweed, Ambrosia elatior)
Source text: as §1, §2

[13] = tested on: sandbur (southem sandbur, Cenchrus echinatus)
Source text: as §1, §2

soybean (Glycine max) = tested on: soybean (Glycine max)
Source text: as §1, §2

[14] = 62 g ai/ha, Postemergence, scale 0 to 100 (0 no effect, 100 complete control)
[15] = 62 g ai/ha, Preemergence, scale 0 to 100 (0 no effect, 100 complete control)
[16] = 125 g ai/ha, Postemergence, scale 0 to 100 (0 no effect, 100 complete control)
[17] = 125 g ai/ha, Preemergence, scale 0 to 100 (0 no effect, 100 complete control)
[18] = Postemergence, 16 g ai/ha, visual, scale 0 no effect to 100 complete control
[19] = Postemergence, 31 g ai/ha, visual, scale 0 no effect to 100 complete control
[20] = Preemergence, 16 g ai/ha, scale 0 to 100, 0 no effect, 100 complete control
[21] = Preemergence, 31 g ai/ha, scale 0 to 100, 0 no effect, 100 complete control
[22] = 62 g ai/ha, scale 0 to 100 (0 no effect, 100 complete control)
[23] = 125 g ai/ha, scale 0 to 100 (0 no effect, 100 complete control)
[24] = 16 g ai/ha, scale 0 to 100, 0 no effect, 100 complete control
[25] = 31 g ai/ha, scale 0 to 100, 0 no effect, 100 complete control

Cc1ccc2sc(C)c(-c3c(OC(=O)OC(C)C)c(C)nn(C)c3=O)c2c1 [Compound 66]
25: Plant response rating, Barnyardgrass [3, 14] | Plant response rating, Crabgrass, Brazil [4, 15] | Plant response rating, Crabgrass, Brazil [4, 21] | Plant response rating, Dayflower, VA [5, 19] | Plant response rating, Ragweed [12, 20] | Plant response rating, Sandbur [13, 18]
75: Plant response rating, Ragweed [12, 18]
10: Plant response rating, Corn (corn (Zea mays); [14]) | Plant response rating, Crabgrass, Brazil [4, 18] | Plant response rating, Goosegrass [7, 22] | Plant response rating, Goosegrass [7, 23] | Plant response rating, Panicum, Fall [11, 20] | Plant response rating, Sandbur [13, 15]
80: Plant response rating, Horseweed ([8]; 31 g ai/ha, visual, scale 0 no effect to 100 complete control) | Plant response rating, Panicum, Fall [11, 16] | Plant response rating, Ragweed [12, 14] | Plant response rating, Ragweed [12, 19]
20: Plant response rating, Ryegrass, Italian [1, 18] | Plant response rating, Barnyardgrass [3, 15] | Plant response rating, Barnyardgrass [3, 16] | Plant response rating, Barnyardgrass [3, 18] | Plant response rating, Corn (corn (Zea mays); [17]) | Plant response rating, Crabgrass, Brazil [4, 19] | Plant response rating, Dayflower, VA [5, 17] | Plant response rating, Soybean (soybean (Glycine max); [14]) | Plant response rating, Soybean (soybean (Glycine max); [16])
90: Plant response rating, Ryegrass, Italian [1, 15] | Plant response rating, Horseweed [8, 22] | Plant response rating, Horseweed [8, 23] | Plant response rating, Ragweed [12, 15] | Plant response rating, Ragweed [12, 16]
0: Plant response rating, Arrowleaf Sida [2, 20] | Plant response rating, Arrowleaf Sida [2, 21] | Plant response rating, Barnyardgrass [3, 20] | Plant response rating, Corn (corn (Zea mays); [15]) | Plant response rating, Corn (corn (Zea mays); [18]) | Plant response rating, Corn (corn (Zea mays); [19]) | Plant response rating, Corn (corn (Zea mays); [20]) | Plant response rating, Corn (corn (Zea mays); [21]) | Plant response rating, Crabgrass, Brazil [4, 20] | Plant response rating, Dayflower, VA [5, 15] | Plant response rating, Dayflower, VA [5, 18] | Plant response rating, Dayflower, VA [5, 20] | Plant response rating, Dayflower, VA [5, 21] | Plant response rating, Foxtail, Green [6, 24] | Plant response rating, Foxtail, Green [6, 25] | Plant response rating, Morningglory [9, 24] | Plant response rating, Morningglory [9, 25] | Plant response rating, Nutsedge, Yellow [10, 24] | Plant response rating, Sandbur [13, 20] | Plant response rating, Sandbur [13, 21] | Plant response rating, Soybean (soybean (Glycine max); [15]) | Plant response rating, Soybean (soybean (Glycine max); [17]) | Plant response rating, Soybean (soybean (Glycine max); [18]) | Plant response rating, Soybean (soybean (Glycine max); [19]) | Plant response rating, Soybean (soybean (Glycine max); [20]) | Plant response rating, Soybean (soybean (Glycine max); [21])
35: Plant response rating, Foxtail, Green [6, 22]
60: Plant response rating, Arrowleaf Sida [2, 14] | Plant response rating, Dayflower, VA [5, 14] | Plant response rating, Horseweed ([8]; 16 g ai/ha, visual, scale 0 no effect to 100 complete control) | Plant response rating, Panicum, Fall [11, 21] | Plant response rating, Sandbur [13, 16]
15: Plant response rating, Barnyardgrass [3, 17] | Plant response rating, Barnyardgrass [3, 19] | Plant response rating, Barnyardgrass [3, 21] | Plant response rating, Corn (corn (Zea mays); [16])
98: Plant response rating, Panicum, Fall [11, 17]
30: Plant response rating, Ryegrass, Italian [1, 19] | Plant response rating, Arrowleaf Sida [2, 18] | Plant response rating, Crabgrass, Brazil [4, 14] | Plant response rating, Morningglory [9, 22] | Plant response rating, Panicum, Fall [11, 18]
5: Plant response rating, Goosegrass [7, 24] | Plant response rating, Goosegrass [7, 25] | Plant response rating, Nutsedge, Yellow [10, 25]
65: Plant response rating, Ryegrass, Italian [1, 21] | Plant response rating, Arrowleaf Sida [2, 17] | Plant response rating, Crabgrass, Brazil [4, 17] | Plant response rating, Nutsedge, Yellow [10, 22] | Plant response rating, Ragweed [12, 21]
50: Plant response rating, Ryegrass, Italian [1, 16] | Plant response rating, Dayflower, VA [5, 16] | Plant response rating, Nutsedge, Yellow [10, 23] | Plant response rating, Sandbur [13, 14]
70: Plant response rating, Arrowleaf Sida [2, 16] | Plant response rating, Foxtail, Green [6, 23] | Plant response rating, Panicum, Fall [11, 14] | Plant response rating, Panicum, Fall [11, 19] | Plant response rating, Sandbur [13, 17]
100: Plant response rating, Ryegrass, Italian [1, 17] | Plant response rating, Ragweed [12, 17]
95: Plant response rating, Panicum, Fall [11, 15]
40: Plant response rating, Ryegrass, Italian [1, 14] | Plant response rating, Ryegrass, Italian [1, 20] | Plant response rating, Arrowleaf Sida [2, 15] | Plant response rating, Arrowleaf Sida [2, 19] | Plant response rating, Crabgrass, Brazil [4, 16] | Plant response rating, Morningglory [9, 23] | Plant response rating, Sandbur [13, 19]
